Laboratory results as given in article PMC2783692 (Analytical biochemistry, 2009).

How the values were obtained:
[1] = target: cannabinoid (CB1) receptor; assay: PWR ligand binding to native rat trigeminal ganglion membrane fragments; conditions: Figure 4, negative spectral shifts
chromatophore membranes = assay: PWR ligand binding to deposited chromatophore membrane fragments; parameters: species or system Rhodopseudomonas sphaeroides
[2] = PWR ligand binding to bare sensor surface; conditions: bare sensor versus chromatophore membrane fragments

CCCCCCC(C)(C)c1ccc([C@@H]2C[C@H](O)CC[C@H]2CCCO)c(O)c1 [CP 55,940]
KD values compared with radioligand binding and lipid bilayer PWR studies [1]: excellent agreement

Cc1c(C(=O)c2cccc3ccccc23)c2cccc3c2n1[C@H](CN1CCOCC1)CO3 [WIN 55,212–2]
KD values compared with radioligand binding and lipid bilayer PWR studies [1]: excellent agreement

bovine serum albumin: control protein replacing cyt c2
changes in PWR spectral position (binding) (chromatophore membranes; control protein replacing cyt c2, up to 100 μM protein): did not observe any measurable changes

B1: cyt c2: Reduced Rhodobacter capsulatus cytochrome (cyt) c2, isolated and purified (protein, UniProt P00094 22-137, looked up)
Cytochrome c2: GDAAKGEKEFNKCKTCHSIIAPDGTEIVKGAKTGPNLYGVVGRTAGTYPEFKYKDSIVALGASGFAWTEEDIATYVKDPGAFLKEKLDDKKAKTGMAFKLAKGGEDVAAYLASVVK
modifications: reduced
binding weaker on bare sensor than on chromatophore fragments [2]: approximately 10 fold | Kd (chromatophore membranes; read-out: apparent binding constant (KD), PWR, reduced cyt c2, hyperbolic fit, minimum of three separate experiments): 2.5 µM
